Data as given in ChEMBL document CHEMBL2150878, “Discovery of an Orally Available, Brain Penetrant BACE1 Inhibitor that Affords Robust CNS Aβ Reduction” (ACS Med Chem Lett, 2012).
In brackets after ≈: the same amount, converted by molar mass.

Tests used:
Rattus norvegicus [1] = assay: AUC (0 to 6 hrs) in rat at 10 mg/kg, po; type: ADME, organism-based, Plasma; set-up: time < 6 hr, dose 10 mg/kg, route oral; conditions: in vivo
[2] = Intrinsic clearance in human hepatocytes assessed per 10^6 cells at 1 uM up to 180 mins; type: ADME, cell-based, Hepatocyte; conditions: read-out: CLH
Rattus norvegicus [3] = assay: Terminal half life in Sprague-Dawley rat at 3 mg/kg, iv; type: ADME, organism-based; set-up: dose 3 mg/kg, route intravenous; conditions: in vivo
[4] = Dissociation constant, pKa of the compound; type: physicochemical
Caco-2 = assay: Apparent permeability of the compound in human Caco2 cells; type: ADME, cell-based
Rattus norvegicus [5] = assay: Oral bioavailability in Sprague-Dawley rat at 3 mg/kg; type: ADME, organism-based; conditions: in vivo
[6] = Intrinsic clearance in rat hepatocytes assessed per 10^6 cells at 1 uM up to 180 mins; type: ADME, cell-based, Hepatocyte; conditions: read-out: CLH
[7] = Solubility of the compound at pH 7.4; type: physicochemical; conditions: buffer
[8] = Lipophilicity, log D of the compound; type: physicochemical; conditions: octanol/water
Nucleic Acid = assay: Ratio of drug level in brain to plasma in Sprague-Dawley rat at 3 mg/kg, po after 3 hrs; type: ADME, organism-based; set-up: dose 3 mg/kg, route oral

For CN1C(=N)N[C@](C)(c2cccc(-c3cccc(C#N)c3)c2)CC1=O, the AUC (Rattus norvegicus [1]) was 8.6 µM·h.
For CC#Cc1cncc(-c2cc(Cl)c([C@]3(C)CC(=O)N(C)C(=N)N3)s2)c1, the hepatocyte CLint at 1 µM [2] was 2.7 µL/min/1e6 cells, the “beta t1/2” value (Rattus norvegicus [3]) was 2.8 h and the pKa [4] was 7.5. It also gave a Papp (Caco-2) of 15.3 ×10⁻⁶ cm/s, an F (Rattus norvegicus [5]) of 69% and a hepatocyte CLint at 1 µM [6] of 4.9 µL/min/1e6 cells. For the same compound, the solubility [7] was 200 µM (≈ 74.6 µg/mL), the logD [8] was 1.8 and the BPR (Nucleic Acid) was 3.
For CN1C(=N)N[C@](C)(c2cccc(-c3cccnc3)c2)CC1=O, the AUC (Rattus norvegicus [1]) was under 1 µM·h.
COc1cccc(-c2cccc([C@]3(C)CC(=O)N(C)C(=N)N3)c2)c1 gave an AUC (Rattus norvegicus [1]) of under 1 µM·h.
